Assay results: patent US8933099B2, “Monocyclic pyridine derivative” (Eisai R&D Management Co., Ltd., priority 2013, dated 2015)
Where two headings read alike, the source gives them in different places.

Legend:
[1] = tested on: human stomach cancer cell line SNU-16 xenograft; experiment: Antitumor effect in SNU-16 subcutaneous xenograft model in mice; type: in vivo; details: oral, once a day for 11 days, tumor volume last day
From the text: Human stomach cancer cell line SNU-16, which had been cultured in an RPMI-1640 medium containing 10% FBS, and penicillin and streptomycin, were adjusted to a concentration of 1×10^8 cells/mL with Hanks' Balanced Salt Solution (GIBCO #24020) to prepare a cell suspension, and the suspension was mixed with […] (BD Biosciences, Cat#354234) in a ratio of 1:1 to prepare a cell suspension in a concentration of 5×10^7 cells/ml. The cell suspension was inoculated in a volume of 100 ut into a subcutaneous part of a right flank of nude mice, 6 to 7 weeks of ages (BALB/cAiel-nu/nu, female, Clea Japan Inc.). Seven days after cell inoculation, the shortest diameter and the longest diameter of a tumor in each mouse were measured by using an electronic digital caliper (Digimatie™ caliper, Mitutoyo Corporation), so as to calculate the volume of the tumor in accordance with the following calculation formula: Tumor volume(mm^3)Longest diameter(mm)×Shortest diameter(mm)×Shortest diameter(mm)/2
On the basis of the volumes of tumors obtained on the first day of administration, the nude mice were grouped such that averages of the tumor volumes were substantially equal among the groups. Each test substance was dissolved in DMSO, Tween 80 was added thereto to prepare a solution in a 10-fold concentration and the thus prepared solution was stored at the freezer before use. Immediately before the administration, the stock solution was diluted with a 5% glucose solution to obtain a final administration solution (in which a ratio in % among DMSO, Tween 80 and the 5% glucose solution was 3.5:6.5:90). Each evaluation sample was orally administered to test substance administration group at a volume of 0.4 mL per 20 g of body weight once a day continuously for 11 days, and in a control group, an administration solvent was orally administered under the same conditions. Incidentally, the experiment was conducted on groups each consisting of 5 mice.
With respect to each of the control group and test substance administration group, a ratio of the weight measured on the final day to the weight measured on the first day (relative body weight: RBW) was calculated. If a ratio of the RBW of the test substance administration group/the RBW of the control group is 0.9 or mom, the corresponding test substance administration group was defined as a well-tolerated. In the test substance administration group thus defined as well-tolerated, a ratio of the tumor volume of the test substance-dosing group to the tumor volume of the control group obtained on the last day (TIC) (%) was calculated, and shown in Table 21.

[2] = tested on: human stomach cancer cell line SNU-16 (FGFR2 gene amplification); experiment: SNU-16 growth inhibition assay; type: cell-based
Method: In this assay, the growth inhibitory activity of a test substance in a human stomach cancer cell line harboring FGFR2 gene amplification is measured.
Then, 10 μL of Cell Counting Kit-8 (Dojindo Laboratories, CK04) was added to each well, and the resultant was incubated for 1 to 2 hours in a 5% CO2 incubator (37° C.) to cause a color reaction. The absorbance value was measured with ENVISION™ (PerkinElmer Co., Ltd.) at 450 nm.

[3] = tested on: normal human umbilical vein endothelial cells (HUVEC); experiment: HUVEC growth inhibition assay (VEGF-induced); type: cell-based
Method: The absorbance value was measured with ENVISION™ (PerkinElmer Co., Ltd.) at 450 nm. The absorbance values of the wells without adding the test substance but with VEGF addition was defined as 100% and the absorbance values of the wells with neither the test substance nor VEGF addition was defined as 0%.

[4] = Homo sapiens, SNU-16, 72 h, read-out: SNU-16 (IC50 (nM)), cell growth, 3 days, Cell Counting Kit-8
[5] = Homo sapiens, HUVEC, 72 h, read-out: HUVEC (IC50 (nM)), growth in the presence of VEGF 10 ng/mL, 3 days
[6] = read-out: SNU-16 (IC50 (nM)), cell growth, 3 days, Cell Counting Kit-8
[7] = read-out: HUVEC (IC50 (nM)), growth in the presence of VEGF 10 ng/mL, 3 days

Compound | IC50 [2, 4] [nM] | IC50 [3, 5] [nM] | also measured
CNC(=O)n1ccc2cc(Oc3ccnc(NC(=O)c4ccc(C5CCN(CCO)CC5)cc4)c3)c(OC)cc21 [Example 3, 5-((2-(4-(1-(2-Hydroxyethyl)piperidin-4-yl)benzamide)pyridin-4-yl)oxy)-6-methoxy-N-methyl-1H-indole-1-carboxamide] | – | – | T/C (%) ([1]; 6.25 mg/kg): 45%; T/C (%) ([1]; 12.5 mg/kg): 27%; T/C (%) ([1]; 25 mg/kg): 19%
CNC(=O)n1ccc2cc(Oc3ccnc(NC(=O)c4ccc(C5CCN(C[C@H](C)O)CC5)cc4)c3)c(OC)cc21 [Example 4, (S)-5-((2-(4-(1-(2-Hydroxypropyl)piperidin-4-yl)benzamide)pyridin-4-yl)oxy)-6-methoxy-N-methyl-1H-indole-1-carboxamide] | – | – | T/C (%) ([1]; 6.25 mg/kg): 40%; T/C (%) ([1]; 12.5 mg/kg): 27%; T/C (%) ([1]; 25 mg/kg): 15%
CNC(=O)n1ccc2cc(Oc3ccnc(NC(=O)c4ccc(CN5CCC(O)CC5)cc4)c3)c(OC)cc21 [Example 9, 5-((2-(4-((4-Hydroxypiperidin-1-yl)methyl)benzamide)pyridin-4-yl)oxy)-6-methoxy-N-methyl-1H-indole-1-carboxamide] | – | – | T/C (%) ([1]; 25 mg/kg): 55%; T/C (%) ([1]; 50 mg/kg): 39%; T/C (%) ([1]; 100 mg/kg): 30%
CCOCCOc1cc2c(ccn2C(=O)NC)cc1Oc1ccnc(NC(=O)c2ccc(C3CCN(CCO)CC3)cc2)c1 [Example 25, 6-(2-Ethoxyethoxy)-5-((2-(4-(1-(2-hydroxyethyl)piperidin-4-yl)benzamide)pyridin-4-yl)oxy)-N-methyl-1H-indole-1-carboxamide] | 3.8 | 191 | T/C (%) ([1]; 6.25 mg/kg): 31%; T/C (%) ([1]; 12.5 mg/kg): 23%; T/C (%) ([1]; 25 mg/kg): 14%; T/C (%) ([1]; 50 mg/kg): 12%
CCOCCOc1cc2c(ccn2C(=O)NC)cc1Oc1ccnc(NC(=O)c2ccc(C3CN(CC)C3)cc2)c1 [Example 26, 6-(2-Ethoxyethoxy)-5-((2-(4-(1-ethylazetidin-3-yl)benzamide)pyridin-4-yl)oxy)-N-methyl-1H-indole-1-carboxamide] | 5.6 | 258 | T/C (%) ([1]; 6.25 mg/kg): 45%; T/C (%) ([1]; 12.5 mg/kg): 36%; T/C (%) ([1]; 25 mg/kg): 22%; T/C (%) ([1]; 50 mg/kg): 27%
CCN1CC(c2ccc(C(=O)Nc3cc(Oc4cc5ccn(C(=O)NC)c5cc4OCCOC)ccn3)cc2)C1 [Example 89] | 6.5 | 416 | –
CNC(=O)n1ccc2cc(Oc3ccnc(NC(=O)c4ccc(C5CCN(C[C@@H](C)O)CC5)cc4)c3)c(OCCOC)cc21 [Example 90] | 6.1 | 203 | –
CNC(=O)n1ccc2cc(Oc3ccnc(NC(=O)c4ccc(C5CCN(C[C@H](C)O)CC5)cc4)c3)c(OCCOC)cc21 [Example 91] | 5.3 | 191 | –
CCN1CCC(c2ccc(C(=O)Nc3cc(Oc4cc5ccn(C(=O)NC)c5cc4OCCOC)ccn3)cc2)CC1 [Example 92] | 5.8 | 182 | –
CNC(=O)n1ccc2cc(Oc3ccnc(NC(=O)c4ccc(CN5CCC(O)CC5)cc4)c3)c(OCCOC)cc21 [Example 93] | 17.6 | 887 | –
CCOCCOc1cc2c(ccn2C(=O)NC)cc1Oc1ccnc(NC(=O)c2ccc(C3CCN(C(C)C)CC3)nc2)c1 [Example 94] | 7.9 | 607 | –
CCOCCOc1cc2c(ccn2C(=O)NC)cc1Oc1ccnc(NC(=O)c2ccc(CN3CCC[C@@H]3CO)s2)c1 [Example 98] | 6.3 | 228 | –
CCOCCOc1cc2c(ccn2C(=O)NC)cc1Oc1ccnc(NC(=O)c2ccc(CN3CCC[C@H]3CO)s2)c1 [Example 99] | 6.3 | 224 | –
CCOCCOc1cc2c(ccn2C(=O)NC)cc1Oc1ccnc(NC(=O)c2ccc(CN3CC[C@@H](O)C3)s2)c1 [Example 100] | – | – | IC50 [2, 6]: 5.8 nM; IC50 [3, 7]: 207 nM
CCOCCOc1cc2c(ccn2C(=O)NC)cc1Oc1ccnc(NC(=O)c2ccc(CN3CCC(O)CC3)s2)c1 [Example 101] | 6.8 | 182 | –
CCOCCOc1cc2c(ccn2C(=O)NC)cc1Oc1ccnc(NC(=O)c2ccc(C3CN(C)C3)cc2)c1 [Example 102] | – | – | IC50 [2, 6]: 3.7 nM; IC50 [3, 7]: 226 nM

Compound | IC50 [2, 4] [nM] | IC50 [3, 5] [nM] | also measured
CCOCCOc1cc2c(ccn2C(=O)NC)cc1Oc1ccnc(NC(=O)c2ccc(C3CN(C(C)C)C3)cc2)c1 [Example 103] | 5.4 | 296 | –
CCOCCOc1cc2c(ccn2C(=O)NC)cc1Oc1ccnc(NC(=O)c2ccc(CN3CCC[C@@H]3CO)cc2)c1 [Example 104] | 13.7 | 600 | –
CCOCCOc1cc2c(ccn2C(=O)NC)cc1Oc1ccnc(NC(=O)c2ccc(CN3CC[C@H](O)C3)cc2)c1 [Example 105] | 7.8 | 687 | –
CCOCCOc1cc2c(ccn2C(=O)NC)cc1Oc1ccnc(NC(=O)c2ccc(CN3CCC(F)CC3)cc2)c1 [Example 107] | 22 | 907 | –
CCOCCOc1cc2c(ccn2C(=O)NC)cc1Oc1ccnc(NC(=O)c2ccc(CN3CCN(CC)CC3)cc2)c1 [Example 108] | 14.7 | 363 | –
CCOCCOc1cc2c(ccn2C(=O)NC)cc1Oc1ccnc(NC(=O)c2ccc(C3CCN(C[C@@H](C)O)CC3)cc2)c1 [Example 111] | 5.1 | 195 | –
CCOCCOc1cc2c(ccn2C(=O)NC)cc1Oc1ccnc(NC(=O)c2ccc(C3CCN(C[C@H](C)O)CC3)cc2)c1 [Example 112] | 3.8 | 202 | –
CCOCCOc1cc2c(ccn2C(=O)NC)cc1Oc1ccnc(NC(=O)c2ccc(CN3CCC(O)CC3)cc2)c1 [Example 115] | 11.4 | 616 | –
CNC(=O)n1ccc2cc(Oc3ccnc(NC(=O)c4ccc(CN5CCC[C@H]5CO)cc4)c3)c(OCCCOC)cc21 [Example 117] | 16.6 | 534 | –
CNC(=O)n1ccc2cc(Oc3ccnc(NC(=O)c4ccc(C5CN(C[C@@H](C)O)C5)cc4)c3)c(OCCCOC)cc21 [Example 118] | 8.6 | 183 | –
CNC(=O)n1ccc2cc(Oc3ccnc(NC(=O)c4ccc(C5CN(C[C@H](C)O)C5)cc4)c3)c(OCCCOC)cc21 [Example 119] | 11.9 | 242 | –
CNC(=O)n1ccc2cc(Oc3ccnc(NC(=O)c4ccc(CN5CC[C@@H](O)C5)cc4)c3)c(OCCCOC)cc21 [Example 121] | 14.9 | 518 | –
CNC(=O)n1ccc2cc(Oc3ccnc(NC(=O)c4ccc(CN5CCC(O)CC5)cc4)c3)c(OCCCOC)cc21 [Example 122] | 11.3 | 494 | –
CNC(=O)n1ccc2cc(Oc3ccnc(NC(=O)c4ccc(C5CCN(C[C@@H](C)O)CC5)cc4)c3)c(OCCCOC)cc21 [Example 125] | 7.2 | 203 | –
CNC(=O)n1ccc2cc(Oc3ccnc(NC(=O)c4ccc(C5CCN(C[C@H](C)O)CC5)cc4)c3)c(OCCCOC)cc21 [Example 126] | 6.6 | 197 | –
CNC(=O)n1ccc2cc(Oc3ccnc(NC(=O)c4ccc(C5CCN(C)CC5)cc4)c3)c(OCCCOC)cc21 [Example 130] | 6.8 | 254 | –
